In ChEMBL document CHEMBL6071148, “Synthesis and biological evaluation of novel 3,6- amide and thioamide substituted- 2,3,4,9-tetrahydro-1H-carbazoles for anti-cancer activity” (Eur J Med Chem, 2024):
Calls of active or inactive are those of the source. The rule behind the calls is not given here.

Key:
HCT-116 [1] = test: Cytotoxicity against human HCT-116 cells assessed as reduction in cell viability by SRB assay; format: functional, cell-based
MCF7 [2] = test: Cytotoxicity against human MCF7 cells assessed as reduction in cell viability by SRB assay; format: functional, cell-based
HCT-116 [3] = test: Cytotoxicity against human HCT-116 cells assessed as inhibition of cell proliferation incubated for 72 hrs by MTT assay; format: functional, cell-based; conditions: HCT-116, 72 h
MCF7 [4] = test: Cytotoxicity against human MCF7 cells assessed as inhibition of cell proliferation incubated for 72 hrs by MTT assay; format: functional, cell-based; conditions: MCF7, 72 h
A549 [5] = test: Cytotoxicity against human A549 cells assessed as inhibition of cell proliferation incubated for 72 hrs by MTT assay; format: functional, cell-based; conditions: A549, 72 h
[6] = Cytotoxicity against human MRC5 cells assessed as inhibition of cell proliferation incubated for 72 hrs by MTT assay; format: toxicity, cell-based
Human papillomavirus = test: Antiviral activity against Human papillomavirus; format: functional, organism-based
MCF7 [7] = test: Induction of apoptosis in human MCF7 cells assessed as increase in apoptotic cells incubated for 24 hrs by Annexin-V and 7-AAD staining based flow cytometric analysis (reference value: 5.70 +/- 1.56%); format: functional
MCF7 [8] = test: Induction of cell cycle arrest in human MCF7 cells assessed as accumulation of cells at G2 phase at IC50 incubated for 24 hrs by PI staining based flow cytometric analysis relative to control; format: functional
HCT-116 [9] = test: Induction of cell cycle arrest in human HCT-116 cells assessed as accumulation of cells at G2 phase at IC50 incubated for 24 hrs by PI staining based flow cytometric analysis relative to control; format: functional
MCF7 [10] = test: Induction of apoptosis in human MCF7 cells assessed as increase in apoptotic cells incubated for 48 hrs by Annexin-V and 7-AAD staining based flow cytometric analysis (reference value: 7.53 +/- 1.16%); format: functional
A549 [11] = test: Induction of DNA damage in human A549 cells assessed as gammaH2AX positive cells at IC50 incubated for 48 hrs by PI staining based flow cytometric analysis (reference value: 4.90 +/- 0.50%); format: functional
A549 [12] = test: Induction of cell cycle arrest in human A549 cells assessed as accumulation of cells at G2 phase at IC50 incubated for 48 hrs by PI staining based flow cytometric analysis (reference value: 38.15 +/- 1.80%); format: functional
HCT-116 [13] = test: Induction of DNA damage in human HCT-116 cells assessed as gammaH2AX positive cells at IC50 incubated for 48 hrs by PI staining based flow cytometric analysis (reference value: 6.24 +/- 1.94%); format: functional
A549 [14] = test: Induction of cell cycle arrest in human A549 cells assessed as accumulation of cells at G1 phase at IC50 incubated for 48 hrs by PI staining based flow cytometric analysis (reference value: 53.5 +/- 4.01%); format: functional
HCT-116 [15] = test: Induction of apoptosis in human HCT-116 cells assessed as increase in apoptotic cells incubated for 24 hrs by Annexin-V and 7-AAD staining based flow cytometric analysis (reference value: 8.10 +/- 2.16%); format: functional
MCF7 [16] = test: Induction of cell cycle arrest in human MCF7 cells assessed as accumulation of cells at G1 phase at IC50 incubated for 24 hrs by PI staining based flow cytometric analysis relative to control; format: functional
A549 [17] = test: Induction of cell cycle arrest in human A549 cells assessed as accumulation of cells at G1 phase at IC50 incubated for 24 hrs by PI staining based flow cytometric analysis (reference value: 37.40 +/- 2.40%); format: functional
A549 [18] = test: Induction of apoptosis in human A549 cells assessed as apoptotic rate at IC50 incubated for 48 hrs by Annexin-V and 7-AAD staining based flow cytometric analysis (reference value: 6.56 +/- 1.17%); format: functional
MCF7 [19] = test: Induction of cell cycle arrest in human MCF7 cells assessed as accumulation of cells at S phase at IC50 incubated for 24 hrs by PI staining based flow cytometric analysis relative to control; format: functional
A549 [20] = test: Induction of cell cycle arrest in human A549 cells assessed as accumulation of cells at G2 phase at IC50 incubated for 24 hrs by PI staining based flow cytometric analysis (reference value: 23.45 +/- 1.62%); format: functional
HCT-116 [21] = test: Induction of cell cycle arrest in human HCT-116 cells at IC50 incubated for 48 hrs by PI staining based flow cytometric analysis; format: functional
MCF7 [22] = test: Induction of DNA damage in human MCF7 cells assessed as gammaH2AX positive cells at IC50 incubated for 48 hrs by PI staining based flow cytometric analysis (reference value: 7.58 +/- 1.23%); format: functional
A549 [23] = test: Induction of apoptosis in human A549 cells assessed as apoptotic rate at IC50 incubated for 24 hrs by Annexin-V and 7-AAD staining based flow cytometric analysis (reference value: 4.56 +/- 0.81%); format: functional
HCT-116 [24] = test: Induction of apoptosis in human HCT-116 cells assessed as increase in apoptotic cells incubated for 48 hrs by Annexin-V and 7-AAD staining based flow cytometric analysis (reference value: 6.82 +/- 1.05%); format: functional
HCT-116 [25] = test: Cytotoxicity against human HCT-116 cells assessed as reduction in cell viability incubated for 48 hrs by MTT assay; format: functional, cell-based; conditions: HCT-116, 48 h
A549 [26] = test: Cytotoxicity against human A549 cells assessed as reduction in cell viability incubated for 48 hrs by MTT assay; format: functional, cell-based; conditions: A549, 48 h
[27] = Cytotoxicity against human KB-R cells assessed as reduction in cell viability incubated for 48 hrs by MTT assay; format: functional, cell-based
K562 = test: Cytotoxicity against human K562 cells assessed as reduction in cell viability incubated for 48 hrs by MTT assay; format: functional, cell-based; conditions: K562, 48 h
[28] = Cytotoxicity against human SGC cells assessed as reduction in cell viability incubated for 48 hrs by MTT assay; format: functional, cell-based

Q: Which results are given for O=C(CSC(=S)N1CCN(c2ccc(Cl)cc2)CC1)n1c2c(c3ccccc31)CCCC2?
A: IC50 (HCT-116 [1]): 8.23 µM; IC50 (MCF7 [2]): 7.24 µM

Q: With CC(=O)Nc1ccc2[nH]c3c(c2c1)CC(NC(=O)OC(C)(C)C)CC3 (stereo unspecified) as the molecule, how does the IC50 (HCT-116 [3]) read?
A: > 50 µM

Q: And the IC50 (MCF7 [4])?
A: > 50 µM

Q: And the IC50 (A549 [5])?
A: > 50 µM

Q: And the IC50 at 72 h [6]?
A: > 50 µM

Q: Which IC50 (HCT-116 [3]) does the source give for CCc1ccc(C(=O)NC2CCc3[nH]c4ccc(NC(C)=O)cc4c3C2)o1 (stereo unspecified) here?
A: > 50 µM

Q: What about the IC50 (MCF7 [4]) of the same molecule?
A: > 50 µM

Q: What about the IC50 (A549 [5]) of the same molecule?
A: > 50 µM

Q: And the IC50 at 72 h [6]?
A: > 50 µM

Q: What does the source list for CC(=O)Nc1ccc2[nH]c3c(c2c1)CC(NC(=O)c1ccc(C)s1)CC3 (stereo unspecified)?
A: IC50 (HCT-116 [3]): > 50 µM; IC50 (MCF7 [4]): > 50 µM; IC50 (A549 [5]): > 50 µM; IC50 at 72 h [6]: > 50 µM

Q: With O=C(N[C@@H]1CCCc2c1[nH]c1ccc(Cl)cc21)c1ccccn1 as the molecule, how does the IC50 (Human papillomavirus) read?
A: 0.005 µM

Q: Which IC50 (HCT-116 [3]) does the source give for O=C1c2c(O)ccc(O)c2C(=O)c2c(NCCNCCO)ccc(NCCNCCO)c21 [MITOXANTRONE] here?
A: 0.127 µM

Q: What about the IC50 (MCF7 [4]) of the same molecule?
A: 0.018 µM

Q: And the Activity (MCF7 [7])?
A: 11.55%

Q: And the Activity (MCF7 [8])?
A: 33.2%

Q: What about the IC50 (A549 [5]) of the same molecule?
A: 0.164 µM

Q: What about the Activity (HCT-116 [9]) of the same molecule?
A: 26.3%

Q: And the Activity (MCF7 [10])?
A: 67.63%

Q: What about the Activity (A549 [11]) of the same molecule?
A: 14.22%

Q: What about the Activity (A549 [12]) of the same molecule?
A: 29.8%

Q: What about the Activity (HCT-116 [13]) of the same molecule?
A: 32.47%

Q: And the Activity (A549 [14])?
A: 48.61%

Q: And the Activity (HCT-116 [15])?
A: 32.01%

Q: What about the Activity (MCF7 [16]) of the same molecule?
A: 44.4%

Q: What about the Activity (A549 [17]) of the same molecule?
A: 34.62%

Q: And the Activity (A549 [18])?
A: 32.27%

Q: What about the Activity (MCF7 [19]) of the same molecule?
A: 17.9%

Q: What about the Activity (A549 [20]) of the same molecule?
A: 20.2%

Q: And the Activity (HCT-116 [21])?
A: Active

Q: What about the Activity (MCF7 [22]) of the same molecule?
A: 23.01%

Q: What about the Activity (A549 [23]) of the same molecule?
A: 30.26%

Q: What about the Activity (HCT-116 [24]) of the same molecule?
A: 31.1%

Q: What about the IC50 at 72 h [6] of the same molecule?
A: 0.517 µM

Q: With CC(=O)Nc1ccc2[nH]c3c(c2c1)CC(NC(=O)c1ccc(Br)o1)CC3 (stereo unspecified) as the molecule, how does the IC50 (HCT-116 [3]) read?
A: > 50 µM

Q: And the IC50 (MCF7 [4])?
A: > 50 µM

Q: And the IC50 (A549 [5])?
A: > 50 µM

Q: What about the IC50 at 72 h [6] of the same molecule?
A: > 50 µM

Q: For CCN(CC)C1CCc2c(n(C)c3ccccc23)C1=O (stereo unspecified), which IC50 (HCT-116 [25]) is on record?
A: 2.96 µM

Q: What about the IC50 (A549 [26]) of the same molecule?
A: 110 µM

Q: And the IC50 [27]?
A: 118 µM

Q: And the IC50 (K562)?
A: 17.3 µM

Q: And the IC50 [28]?
A: 24.4 µM
